What was measured:
IspG [1] = target: T1, IspG (Escherichia coli, UniProt P62620); assay: protein thermal shift assay; format: binding; details: 200 µM HMBPP, 2 µM protein, 25 mM MOPS pH 7.5, 50 mM NaCl
T1 sequence (P62620 1-372): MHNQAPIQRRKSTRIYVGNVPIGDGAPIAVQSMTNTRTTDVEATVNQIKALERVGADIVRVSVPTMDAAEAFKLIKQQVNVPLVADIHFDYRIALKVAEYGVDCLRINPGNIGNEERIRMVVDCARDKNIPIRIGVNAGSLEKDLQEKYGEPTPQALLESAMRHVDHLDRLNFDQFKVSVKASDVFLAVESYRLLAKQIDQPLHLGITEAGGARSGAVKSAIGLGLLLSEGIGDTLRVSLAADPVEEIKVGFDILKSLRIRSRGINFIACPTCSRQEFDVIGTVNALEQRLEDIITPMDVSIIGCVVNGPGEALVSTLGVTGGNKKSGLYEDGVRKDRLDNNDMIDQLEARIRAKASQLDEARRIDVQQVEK

H-NS = target: T2, H-NS (Escherichia coli, UniProt P0ACF8); assay: microscale thermophoresis; details: read-out: binding affinity
T2 construct: gene hns
T2 sequence (P0ACF8 2-137): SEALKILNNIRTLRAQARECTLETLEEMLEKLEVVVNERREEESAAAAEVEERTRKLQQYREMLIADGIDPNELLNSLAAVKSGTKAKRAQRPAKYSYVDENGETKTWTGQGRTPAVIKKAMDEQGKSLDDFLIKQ

IspG [2] = target: T1, IspG; assay: microscale thermophoresis; details: read-out: binding affinity

C/C(=C\COP(=O)(O)OP(=O)(O)O)CO [HMBPP]
shift in the melting temperature (IspG [1]): MEcPP and HMBPP, two known IspG binding metabolites, effectively changed the melting temperature of IspG

C[C@@]1(CO)OP(=O)(O)OP(=O)(O)OC[C@H]1O [MEcPP]
Kd (H-NS): 6.46 ± 2.17 µM | Kd (IspG [2]): 29.4 ± 10 µM

From PMC11582573, “An evolutionarily conserved metabolite inhibits biofilm formation in Escherichia coli K-12” (Nature Communications, 2024)
